From patent US10561733B2, “Process for producing nanoparticles laden with active ingredient” (Merck Patent GmbH, priority 2012, dated 2020)

Experiment: Visual solubility in organic solvent on successive addition of water
Type: physicochemical
Details: 1 mg/100 μl in THF, ACN, acetone, DMSO, DMF, methanol, ethanol; 10 μl water added successively until precipitation
Protocol: If the active compound is insoluble in an organic solvent, this solvent is less suitable for the production of nanoparticles. If a clear solution is formed, in each case equal defined amounts of aqueous solvent are added stepwise and mixed in each case until precipitation of the active compound is visible after addition and mixing (visual solubility). The assessment of visual solubility is carried out visually in a suitable container, preferably in a glass tube having a small diameter, for example as are customary in gas chromatography (diameter of 0.5 cm, height 3 cm), under cold light, which preferably radiates upward, against a dark surface, preferably against a black surface, as background. A diagrammatic representation of the procedure is depicted in FIG. 1.
For loading experiments, the active compounds dexamethasone and 5-[2-(2-fluorophenyl)-1,8-naphthyridin-4-yl]-2,6-naphthyridin-1-ylamine (also called active compound B below) were used. For solvent selection, the active compounds were each dissolved in the following solvents with a concentration of 1 mg/100 μl: tetrahydrofuran (THF), acetonitrile (ACN), acetone, dimethyl sulfoxide (DMSO), dimethylformamide (DMF), methanol, ethanol. Additionally, 0.1% of trifluoroacetic acid (v/v) were added to each organic solution of active compound B in order to establish an apparent “pH”. […]

## C[C@@H]1C[C@H]2[C@@H]3CCC4=CC(=O)C=C[C@]4(C)[C@@]3(F)[C@@H](O)C[C@]2(C)[C@@]1(O)C(=O)CO [dexamethasone]
  visual solubility: increased visual solubility in tetrahydrofuran
